From patent publication US5527703A (Merck & Co., Inc., priority 1994, dated 1996)
Entries after “also recorded” stand apart in the source; their conditions may differ.

How the values were obtained:
[1] = molecular target: T1, GluCl α&β (Caenorhabditis elegans, UniProt G5EBR3+Q17328); test: Antagonist block of ligand-activated current in oocytes injected with GluClα and GluClβ RNA; assay type: cell-based, C. elegans; conditions: for inhibition at 100 µM: read-out: % Block; for % Block: blocker 100 μM
T1 construct: the full-length open reading frame of the GluCl cDNA encoding the GluClα (52,550 kDa) and GluClβ (49,900kDa) subunits; expressed in transfected cells; host or cells: Xenopus laevis oocytes injected with in vitro RNA
T1 sequence (G5EBR3 21-461): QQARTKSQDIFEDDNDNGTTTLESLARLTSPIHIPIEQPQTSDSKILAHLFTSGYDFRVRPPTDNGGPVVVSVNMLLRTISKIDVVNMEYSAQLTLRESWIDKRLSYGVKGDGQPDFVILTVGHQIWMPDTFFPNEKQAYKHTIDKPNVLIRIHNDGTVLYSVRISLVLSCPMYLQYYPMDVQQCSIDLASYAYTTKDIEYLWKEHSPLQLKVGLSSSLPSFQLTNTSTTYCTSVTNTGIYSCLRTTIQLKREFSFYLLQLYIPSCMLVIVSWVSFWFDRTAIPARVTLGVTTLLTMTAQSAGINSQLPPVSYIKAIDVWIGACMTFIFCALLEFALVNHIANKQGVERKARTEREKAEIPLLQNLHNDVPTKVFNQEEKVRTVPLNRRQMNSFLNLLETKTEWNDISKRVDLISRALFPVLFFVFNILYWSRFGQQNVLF
T1 sequence (Q17328 23-434): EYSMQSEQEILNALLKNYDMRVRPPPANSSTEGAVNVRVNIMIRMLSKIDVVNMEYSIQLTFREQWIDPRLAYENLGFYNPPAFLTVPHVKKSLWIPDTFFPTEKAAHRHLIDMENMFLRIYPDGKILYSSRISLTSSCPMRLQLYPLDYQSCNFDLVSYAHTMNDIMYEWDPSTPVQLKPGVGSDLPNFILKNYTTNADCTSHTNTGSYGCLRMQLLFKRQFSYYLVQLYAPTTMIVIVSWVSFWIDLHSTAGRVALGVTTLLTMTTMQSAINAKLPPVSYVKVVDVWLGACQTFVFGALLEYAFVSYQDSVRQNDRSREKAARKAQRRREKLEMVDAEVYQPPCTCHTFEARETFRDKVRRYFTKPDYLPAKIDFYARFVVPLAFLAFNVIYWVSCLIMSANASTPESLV
Description: (§1) Xenopus laevis oocytes were prepared and injected using standard methods previously described and known in the art [Arena, J. P., Liu. K. K., Paress, P. S. & Cully. D. F. Mol. Pharmacol. 40, 368-374 (1991 ); Arena, J. P., Liu, K. K., Paress, P. S., Schaeffer, J. M. & Cully, D. F. Mol. Brain Res. 15, 339-348 (1992)]. Adult female Xenopus laevis were anesthetized with 0.17% tricaine methanesulfonate and the ovaries were surgically removed and placed in a dish consisting of (mM): NaCl 1 82.5, KCl 2. MgCl2 1, CaCl2 1.8, HEPES 5 adjusted to pH 7.5 with NaOH (OR-2). Ovarian lobes were broken open, rinsed several times, and gently shaken in OR-2 containing 0.2% collagenase (Sigma, Type 1A) for 2-5 hours. When approximately 50% of the follicular layers were removed, Stage V and VI oocytes were selected and placed in media consisting of (mM): NaCl 86, KCl 2, MgCl2 1, CaCl2 1.8, HEPES 5, Na pyruvate 2.5, theophylline 0.5, gentamicin 0.1 adjusted to pH 7.5 with NaOH (ND-96) for 24-48 hours before injection. Oocytes were injected with 50-70 nl of poly(A^+) RNA (1 mg/ml) or 50 nl of GluClα (0.1-100 ng) and/or GluClβ (0.1-100 ng). Control oocytes were injected with 50 nl of water. Oocytes were incubated for 2-10 days in ND-96 before recording. Incubations and collagenase digestion were carried out at 18° C.
(§2) Recordings were made at room temperature 2-10 days after injection. Unless otherwise indicated recordings were made in standard frog saline consisting of (mM): NaCl 115, KCl 2, MgCl2 1, CaCl2 1.8, HEPES 10 adjusted to pH 7.5 with NaOH. Oocytes were voltage-clamped using a standard two microelectrode amplifier (Dagan 8500 or TEV-200, Minneapolis,Minn.). Pipettes were filled with 3M KCl and had resistances between 0.5-3.0 M.OMEGA.. A plexiglass recording chamber (volume 200 μl) was constantly perfused at a rate of 10 ml/min. The recording chamber was connected to ground with a Ag/AgCl electrode directly, or through a 3M KCl agar bridge when extracellular chloride was varied. For low chloride solutions NaCl was replaced with equimolar concentrations of sodium isethionic acid. For low sodium solutions NaCl was replaced with equimolar KCl or choline Cl. Data were acquired and analyzed using PCLAMP with a TL-1 interface (Axon Instruments, Foster City, Calif.). Membrane current at a holding potential of -80 mV was recorded. The amplitude of drug-sensitive current was determined by subtracting the holding current at -80 mV from the peak current obtained in the presence of drug. Data were filtered at 30 Hz and sampled at 16.6 Hz. Current/voltage relationships (I/V) and reversal potentials (Erev) were determined using a 1-3 sec voltage ramp over the voltage range of -110 to +80 mV. For the ramps, data were filtered at 0.3-3 kHz and sampled at 160 Hz. Current in drug free solution was subtracted from current in the presence of drug to obtain drug-sensitive current/voltage relationships.
Oocytes were injected simultaneously with GluClα and GluClβ RNA
(25 pg each). n=at least four for each group. a- Data are expressed as %
acid. e- Block was considered zero if response in the presence of blocker
was ± 3% of control. f- (-)-Bicuculline methochloride g.

[2] = molecular target: T2, GluClβ (Caenorhabditis elegans, UniProt Q17328); test: Activation of current in Xenopus oocytes expressing homomeric GluClβ (voltage clamp); assay type: cell-based, C. elegans
T2 construct: the full-length open reading frame of the GluCl cDNA encoding the GluClα (52,550 kDa) and GluClβ (49,900kDa) subunits; expressed in transfected cells; host or cells: Xenopus laevis oocytes injected with in vitro RNA
T2 sequence (Q17328 23-434): T1 sequence (Q17328 23-434)
Description: as §1, §2
(§3) Electrophysiological properties were examined in oocytes injected with in vitro RNA from pGluClα and pGluClβ (FIG. 5).

[3] = test system: arthropod H-receptors; conditions: cited from earlier work
[4] = molecular target: T3, GluClα (Caenorhabditis elegans, UniProt G5EBR3); test: Activation of current in Xenopus oocytes expressing homomeric GluClα (voltage clamp); assay type: cell-based, C. elegans; set-up: the full-length open reading frame of the GluCl cDNA encoding the GluClα (52,550 kDa) and GluClβ (49,900kDa) subunits; expressed in transfected cells; host or cells: Xenopus laevis oocytes injected with in vitro RNA
T3 sequence (G5EBR3 21-461): T1 sequence (G5EBR3 21-461)
Description: as §1, §2, §3

[5] = molecular target: T1, GluCl α&β; test: Agonist activation of current in Xenopus oocytes injected with GluClα and GluClβ RNA (two-microelectrode voltage clamp); assay type: cell-based, C. elegans
Description: as §1, §2, §3
Several ligand-gated ion channel agonists and antagonists were tested on oocytes injected with GluCl α&β (Table 1). […] 255, 449-464 (1976); Arena, J. P., Liu, K. K., Paress, P. S., Schaeffer, J. M. & Cully, D. F. Mol. Brain Res. 15, 339-348 (1992); Lea, T. J. & Usherwood, P. N. R. Comp. Gen. Pharmacol. 4, 351-363 (1973)].

[6] = test system: glutamate- and avermectin-sensitive chloride channel (C. elegans poly(A)+ RNA); conditions: cited from earlier work
[7] = molecular target: T1, GluCl α&β; test: 3H-ivermectin equilibrium binding to GluCl α&β RNA injected oocytes; set-up: species or system C. elegans; conditions: read-out: affinity of 3H-ivermectin binding; oocytes expressing GluCl α&β
Description: (§4) Oocytes injected with GluClα and GluClβ in vitro RNA were used in ^3 H-ivermectin and ^3 H-glutamate binding assays. GluClα (1 ng) or GluClβ RNA (1 ng) were injected into oocytes individually, or coinjected (0.5 ng each) and 2 days later the oocytes were disrupted with a dounce homogenizer and yolk proteins removed using standard methods known in the art. Equilibrium ligand binding assays were performed using conventional procedures. […] Oocytes expressing GluCl α&β are used to measure the affinity of binding of othere compounds and their ability to displace ^3 H-ivermectin and ^3 H-glutamate binding.

[8] = molecular target: T3, GluClα; test: 3H-ivermectin equilibrium binding to GluClα RNA injected oocytes; set-up: the full-length open reading frame of the GluCl cDNA encoding the GluClα (52,550 kDa) and GluClβ (49,900kDa) subunits; expressed in transfected cells; host or cells: Xenopus laevis oocytes injected with in vitro RNA; species or system C. elegans; conditions: read-out: affinity of 3H-ivermectin binding; oocytes expressing GluClα
Description: as §4

[9] = molecular target: T3, GluClα; test: Permeability (reversal potential) of GluClα channels in oocytes; assay type: cell-based, C. elegans; set-up: homomeric channel; voltage clamp reversal potentials; conditions: Erev in Na isothionate
Description: Xenopus laevis oocytes were prepared and injected using standard methods previously described and known in the art [Arena, J. P., Liu. K. K., Paress, P. S. & Cully. D. F. Mol. Pharmacol. 40, 368-374 (1991 ); Arena, J. P., Liu, K. K., Paress, P. S., Schaeffer, J. M. & Cully, D. F. Mol. Brain Res. 15, 339-348 (1992)]. Adult female Xenopus laevis were anesthetized with 0.17% tricaine methanesulfonate and the ovaries were surgically removed and placed in a dish consisting of (mM): NaCl 1 82.5, KCl 2. MgCl2 1, CaCl2 1.8, HEPES 5 adjusted to pH 7.5 with NaOH (OR-2). Ovarian lobes were broken open, rinsed several times, and gently shaken in OR-2 containing 0.2% collagenase (Sigma, Type 1A) for 2-5 hours. […]
Recordings were made at room temperature 2-10 days after injection. […] Data were acquired and analyzed using PCLAMP with a TL-1 interface (Axon Instruments, Foster City, Calif.). Membrane current at a holding potential of -80 mV was recorded. The amplitude of drug-sensitive current was determined by subtracting the holding current at -80 mV from the peak current obtained in the presence of drug. […] Current/voltage relationships (I/V) and reversal potentials (Erev) were determined using a 1-3 sec voltage ramp over the voltage range of -110 to +80 mV. […]

[10] = molecular target: T3, GluClα; test: 3H-glutamate equilibrium binding to GluClα injected oocyte membranes; set-up: the full-length open reading frame of the GluCl cDNA encoding the GluClα (52,550 kDa) and GluClβ (49,900kDa) subunits; expressed in transfected cells; host or cells: Xenopus laevis oocytes injected with in vitro RNA; species or system C. elegans; conditions: membrane preparations from GluClα-injected oocytes
Description: as §4

C[N+]1(C)CCc2cc3c(cc2C1C1OC(=O)c2c1ccc1c2OCO1)OCO3 (single isomer, unassigned; (-)) [Bicuculline, (-)-Bicuculline methochloride]
inhibition at 100 µM [1]: 0%

N#Cc1cc2[nH]c(=O)c(=O)[nH]c2cc1[N+](=O)[O-] [CNQX, 6-cyano-7-nitroquino-xaline-2,3-dione]
inhibition at 10 µM [1]: 0%

O=C(O)c1ccccc1Nc1cccc(C(F)(F)F)c1 [Flufenamic Acid]
block of glutamate- and IVMPO4-sensitive currents [1]: blocked; also recorded: low affinity block | inhibition at 200 µM ([1]; blocker 200 μM, ligand IVMPO4 1 μM): 60 ± 4%

NCCCC(=O)O [GABA]
sensitivity of GluClβ homomeric channels [2]: insensitive | effect on arthropod H-receptors [3]: not activated | sensitivity of GluClα homomeric channels [4]: insensitive | activation of current / sensitivity of coexpressed GluCl α&β [5]: insensitivity

NCC(=O)O [Glycine]
sensitivity of GluClβ homomeric channels [2]: insensitive | sensitivity of GluClα homomeric channels [4]: insensitive | activation of current / sensitivity of coexpressed GluCl α&β [5]: insensitivity

NC(C(=O)O)c1cc(=O)[nH]o1 (stereo not shown) [Ibotenate]
effect on glutamate- and avermectin-sensitive current [6]: activated | effect on arthropod H-receptors [3]: activated | activation of current / sensitivity of coexpressed GluCl α&β [5]: direct activation of current | Emax at 500 µM ([5]; read-out: % of Glutamate 10 mM): 18 ± 2%

O=C1C[C@@H]2OCC=C3CN4CC[C@]56c7ccccc7N1[C@H]5[C@H]2[C@H]3C[C@H]46 [Strychnine]
inhibition at 100 µM [1]: 0%

CC[C@H](C)[C@H]1O[C@]2(CC[C@@H]1C)C[C@@H]1C[C@@H](C/C=C(\C)[C@@H](O[C@H]3C[C@H](OC)[C@@H](O[C@H]4C[C@H](OC)[C@@H](O)[C@H](C)O4)[C@H](C)O3)[C@@H](C)/C=C/C=C3\CO[C@@H]4[C@H](O)C(C)=C[C@@H](C(=O)O1)[C@]34O)O2 [^3 H-ivermectin, 22,23-dihydroavermectin B1a]
Kd [7]: ~200 pM | Kd [8]: ~200 pM

O=S(=O)(O)CCO [isothionate]
permeability ratio to chloride [9]: 0.2

Picrotoxin
effect on glutamate- and avermectin-sensitive current [6]: blocked with low affinity | effect on arthropod H-receptors [3]: blocked with low affinity | block of glutamate- and IVMPO4-sensitive currents [1]: blocked; also recorded: low affinity block | % Block ([1]; ligand IVMPO4 1 μM): 61 ± 2% | % Block ([1]; ligand glutamate 1 mM, zero if within ± 3% of control): 68 ± 4%

^3 H-glutamate
Specific 3H-glutamate binding [10]: observed
